Laboratory results taken from patent publication US12258338B2, “Modulators of the integrated stress response pathway” (EVOTEC INTERNATIONAL GMBH, priority 2019, dated 2025).

How the values were obtained:
[1] = target: T1, human ERG potassium channel (hERG) (Homo sapiens, UniProt Q12809); experiment: hERG channel tail current recording using in vitro Rapid ICE (automated patch-clamp, QPatch HTX); assay type: cell-based; conditions: Table 26
T1 construct: expressed in transfected cells; host or cells: HEK293, stably transfected, tetracycline-inducible promoter
Experimental: Protocol—Measure of the Effect on hERG Channel by Tail Current Recording Using In Vitro Rapid ICE
The potency of the example compounds in inhibiting human ERG potassium channel (hERG) tail current was assessed in a recombinant HEK293 cell line stably transfected with hERG cDNA under an inducible promoter, using Rapid ICE (rapid ion channel electrophysiology) assay. Rapid ICE is an automated patch-clamp assay utilizing the QPatch HTX system (Sophion Bioscience A/S). Briefly, inducible HEK hERG cells were cultivated in minimum essential medium supplemented with 10% FBS, 1% non-essential amino acids, 1% sodium pyruvate, 2 mM 1-glutamine, 15 μg/mL blasticidin, and 100 μg/mL hygromycin. hERG channel expression induction was obtained by adding 10 μg/mL tetracycline for 24, 48, or 72 h before recordings.
On the day of the experiment, cells were detached with TrypLE and prepared to be loaded on the instrument. Cells were resuspended in 7 mL of Serum-Free Media containing 25 mM Hepes and soybean trypsin inhibitor and immediately placed in the cell storage tank of the machine. The composition of the extracellular buffer was (mM): NaCl 137, KCl 4, CaCl2 1.8, MgCl2 1.0, d-glucose 10, N-2-hydroxyethylpiperazine-N′-2-ethanesulfonic acid (HEPES) 10, pH 7.4 with 1 M NaOH. The composition of the intracellular solution was (mM): KCl 130, MgCl2 1.0, ethylene glycol-bis(β-aminoethyl ether)-N,N,N′,N′-tetraacetic acid (EGTA) 5, MgATP 5, HEPES 10, pH 7.2 with 1 M KOH. The voltage protocol included the following steps: step from −80 to −50 mV for 200 ms, +20 mV for 4.8 s, step to −50 mV for 5 s, then step to the holding potential of −80 mV. Compounds were dissolved in DMSO and diluted in extracellular buffer to achieve final test concentrations (0.3, 3, and 30 μM) in 0.3% DMSO. The voltage protocol was run and recorded continuously during the experiment. The vehicle, corresponding to 0.3% DMSO in extracellular buffer was then applied for 3 min, followed by the test substance in triplicate. The standard combined exposure time was 5 min. The average of tail current amplitude values recorded from four sequential voltage pulses was used to calculate for each cell the effect of the test substance by calculating the residual current (% control) compared with vehicle pretreatment. Data were reported as % inhibition for each concentration tested, and IC50 values were estimated using QPatch software. At least two cells were tested, and even more if results diverged.

ATF4 = experiment: HEK-ATF4 High Content Imaging assay (prevention of Tunicamycin induced ISR; ATF4 signal ratio between nucleus and cytoplasm); assay type: cell-based; conditions: Homo sapiens; Wild-type HEK293 cells, Tunicamycin induced ISR, 6 h; read-out: IIEK-ATF4 Activity
Outline: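 Wild-type HEK293 cells in 0.3% FBS medium were co-treated with compounds and Tunicamycin (3.3 μM in prediluted medium, 11-fold over final) for 6 h at 37 °C. Fixed cells were immunostained for ATF4 with Hoechst nuclei; imaging gave nuclear/cytoplasmic ATF4 ratio, with nuclei counts as toxicity control.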

T1 sequence (Q12809 whole entry): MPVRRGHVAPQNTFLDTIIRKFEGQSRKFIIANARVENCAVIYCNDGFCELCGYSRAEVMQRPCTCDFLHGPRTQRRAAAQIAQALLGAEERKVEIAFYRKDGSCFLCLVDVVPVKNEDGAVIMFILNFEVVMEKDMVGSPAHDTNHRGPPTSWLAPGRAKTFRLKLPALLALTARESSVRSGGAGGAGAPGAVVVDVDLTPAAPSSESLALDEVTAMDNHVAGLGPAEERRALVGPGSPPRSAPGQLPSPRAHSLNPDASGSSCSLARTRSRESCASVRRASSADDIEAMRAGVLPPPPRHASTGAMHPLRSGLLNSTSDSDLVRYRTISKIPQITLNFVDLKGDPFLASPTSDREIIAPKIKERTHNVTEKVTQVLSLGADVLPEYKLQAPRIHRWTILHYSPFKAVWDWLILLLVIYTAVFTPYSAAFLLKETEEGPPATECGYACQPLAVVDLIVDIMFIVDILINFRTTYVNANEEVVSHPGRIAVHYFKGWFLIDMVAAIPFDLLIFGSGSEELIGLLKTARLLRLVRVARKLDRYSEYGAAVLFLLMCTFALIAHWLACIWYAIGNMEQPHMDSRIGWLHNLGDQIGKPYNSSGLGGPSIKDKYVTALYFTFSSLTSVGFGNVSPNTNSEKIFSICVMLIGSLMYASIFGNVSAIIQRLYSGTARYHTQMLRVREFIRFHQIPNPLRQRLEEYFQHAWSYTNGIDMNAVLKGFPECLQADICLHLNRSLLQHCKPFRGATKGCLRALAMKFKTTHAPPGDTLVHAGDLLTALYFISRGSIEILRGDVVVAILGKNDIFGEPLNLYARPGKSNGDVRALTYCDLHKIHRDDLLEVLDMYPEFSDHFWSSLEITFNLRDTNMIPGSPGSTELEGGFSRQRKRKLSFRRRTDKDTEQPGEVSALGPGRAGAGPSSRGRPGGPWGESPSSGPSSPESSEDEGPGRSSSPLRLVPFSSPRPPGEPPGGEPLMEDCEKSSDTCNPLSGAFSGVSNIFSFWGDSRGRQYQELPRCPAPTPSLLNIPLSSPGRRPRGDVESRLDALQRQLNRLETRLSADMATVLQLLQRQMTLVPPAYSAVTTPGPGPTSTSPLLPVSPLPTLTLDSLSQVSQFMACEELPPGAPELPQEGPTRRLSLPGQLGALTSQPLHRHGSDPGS

| SMILES | IC50 [1] [nM] | IC50 (ATF4) [nM] |
| --- | --- | --- |
| CCCCCOc1nnc([C@H]2CC[C@H](NC(=O)COc3ccc(Cl)c(F)c3)CN2)o1 [Example 78, 2-(4-chloro-3-fluorophenoxy)-N-[(3S,6R)-6-[5-(pentyloxy)-1,3,4-oxadiazol-2-yl]piperidin-3-yl]acetamide] | 1000 to 5000 | 1 to 500 |
| COCCCOc1nnc([C@H]2CC[C@H](NC(=O)COc3ccc(Cl)c(F)c3)CN2)o1 [Example 79, 2-(4-chloro-3-fluorophenoxy)-N-[(3S,6R)-6-[5-(3-methoxypropoxy)-1,3,4-oxadiazol-2-yl]piperidin-3-yl]acetamide] | > 5000 | 2000 to 15000 |
| O=C(COc1ccc(Cl)c(F)c1)N[C@H]1CC[C@H](c2nnc(OCCOC3CC3)o2)NC1 [Example 80, 2-(4-chloro-3-fluorophenoxy)-N-[(3S,6R)-6-[5-(2-cyclopropoxythoxy)-1,3,4-oxadiazol-2-yl]piperidin-3-yl]acetamide] | > 5000 | 1 to 500 |
| CCOCCOc1nnc([C@H]2CC[C@H](NC(=O)COc3ccc(Cl)c(F)c3)CN2)o1 [Example 81, 2-(4-chloro-3-fluorophenoxy)-N-[(3S,6R)-6-[5-(2-ethoxyethoxy)-1,3,4-oxadiazol-2-yl]piperidin-3-yl]acctamide] | > 5000 | 500 to 2000 |
| O=C(COc1ccc(Cl)c(F)c1)N[C@H]1CC[C@H](c2nnc(OCCOC3CCC3)o2)NC1 [Example 82, 2-(4-chloro-3-fluorophenoxy)-N-[(3S,6R)-6-[5-(2-cyclobutoxyethoxy)-1,3,4-oxadiazol-2-yl]piperidin-3-yl]acetamide] | > 5000 | 1 to 500 |
| O=C(COc1ccc(Cl)c(F)c1)N[C@@H]1CC[C@@H](c2nnc(OCCOC(F)(F)F)o2)NC1 [Example 83, 2-(4-chloro-3-fluorophenoxy)-N-[(3R,6S)-6-{5-[2-(trifluoromethoxy)ethoxy]-1,3,4-oxadiazol-2-yl}piperidin-3-yl]acetamide] | > 5000 | 1 to 500 |
| O=C(COc1ccc(Cl)c(Cl)c1)N[C@H]1CC[C@H](c2nnc(OCCOC3CC3)o2)NC1 [Example 86, N-[(3S,6R)-6-[5-(2-cyclopropoxyethoxy)-1,3,4-oxadiazol-2-yl]piperidin-3-yl]-2-(3,4-dichlorophenoxy)acetamide] | 1000 to 5000 | 1 to 500 |
| O=C(COc1ccc(Cl)c(F)c1)N[C@H]1CC[C@H](c2nnc(OCCOC3CC3(F)F)o2)NC1 (stereo partly drawn) [Example 87, 2-(4-chloro-3-fluorophenoxy)-N-[(3S,6R)-6-{5-[2-(2,2-difluorocyclopropoxy)ethoxy]-1,3,4-oxadiazol-2-yl}piperidin-3-yl]acetamide] | 1000 to 5000 | 1 to 500 |
| O=C(COc1ccc(Cl)c(F)c1)N[C@H]1CC[C@H](c2nnc(OCC3CC3C(F)(F)F)o2)NC1 (stereo partly drawn) [Example 88, 2-(4-chloro-3-fluorophenoxy)-N-[(3S,6R)-6-(5-{[2-(trifluoromethyl)cyclopropyl]methoxy}-1,3,4-oxadiazol-2-yl)piperidin-3-yl]acetamide] | 1000 to 5000 | 500 to 2000 |
| O=C(COc1ccc(Cl)c(F)c1)N[C@H]1CC[C@H](c2nnc(N3CC(OC(F)(F)F)C3)o2)NC1 [Example 91, 2-(4-chloro-3-fluorophenoxy)-N-[(3S,6R)-6-{5-[3-(trifluoromethoxy)azetidin-1-yl]-1,3,4-oxadiazol-2-yl}piperidin-3-yl]acetamide] | 1000 to 5000 | 1 to 500 |
| O=C(COc1ccc(Cl)c(F)c1)N[C@H]1CC[C@H](c2nnc(N3CC(CC(F)(F)F)C3)o2)NC1 [Example 92, 2-(4-chloro-3-fluorophenoxy)-N-[(3S,6R)-6-{5-[3-(2,2,2-trifluoroethyl)azetidin-1-yl]-1,3,4-oxadiazol-2-yl}piperidin-3-yl]acetamide] | 1000 to 5000 | 500 to 2000 |
| CC1(OC(F)(F)F)CN(c2nnc([C@H]3CC[C@H](NC(=O)COc4ccc(Cl)c(F)c4)CN3)o2)C1 [Example 93, 2-(4-chloro-3-fluorophenoxy)-N-[(3S,6R)-6-{5-[3-methyl-3-(trifluoromethoxy)azetidin-1-yl]-1,3,4-oxadiazol-2-yl}piperidin-3-yl]acetamide] | > 5000 | 500 to 2000 |
| CN(CCOC(F)(F)F)c1nnc([C@H]2CC[C@H](NC(=O)COc3ccc(Cl)c(F)c3)CN2)o1 [Example 94, 2-(4-chloro-3-fluorophenoxy)-N-[(3S,6R)-6-(5-{methyl[2-(trifluoromethoxy)ethyl]amino}-1,3,4-oxadiazol-2-yl)piperidin-3-yl]acetamide] | > 5000 | 2000 to 15000 |
| O=C(COc1cnc(Cl)c(F)c1)N[C@H]1CC[C@H](c2nnc(-c3ccc(Cl)c(Cl)c3)o2)NC1 [Example 100, 2-[(6-chloro-5-fluoropyridin-3-yl)oxy]-N-[(3S,6R)-6-[5-(3,4-dichlorophenyl)-1,3,4-oxadiazol-2-yl]piperidin-3-yl]acetamide] | 1000 to 5000 | 1 to 500 |
| CN1C[C@@H](NC(=O)COc2ccc(Cl)c(F)c2)CC[C@@H]1c1nnc(OCCOC(F)(F)F)o1 [Example 101, 2-(4-chloro-3-fluorophenoxy)-N-[(3S,6R)-1-methyl-6-{5-[2-(trifluoromethoxy)ethoxy]-1,3,4-oxadiazol-2-yl}piperidin-3-yl]acetamide] | > 5000 | 1 to 500 |
| O=C(COc1ccc(C(F)F)c(Cl)c1)N[C@H]1CC[C@H](c2nnc(OCCOC(F)(F)F)o2)NC1 [Example 113, 2-[3-chloro-4-(difluoromethyl)phenoxy]-N-[(3S,6R)-6-{5-[2-(trifluoromethoxy)ethoxy]-1,3,4-oxadiazol-2-yl}piperidin-3-yl]acetamide] | 1000 to 5000 | 1 to 500 |
